Test results published in ChEMBL document CHEMBL1131884, “Dicationic 2-fluorenonylcarbapenems: potent anti-MRS agents with improved solubility and pharmacokinetic properties” (Bioorg Med Chem Lett, 1999).

Assays:
MecA = biological target: T1, MecA (Staphylococcus aureus, UniProt Q7DHH4); assay: Binding affinity against PBP2a receptor by competition analysis with [3H]benzylpenicillin using cell membrane fractions from the MRSA COL strain.
T1 sequence (Q7DHH4 whole entry): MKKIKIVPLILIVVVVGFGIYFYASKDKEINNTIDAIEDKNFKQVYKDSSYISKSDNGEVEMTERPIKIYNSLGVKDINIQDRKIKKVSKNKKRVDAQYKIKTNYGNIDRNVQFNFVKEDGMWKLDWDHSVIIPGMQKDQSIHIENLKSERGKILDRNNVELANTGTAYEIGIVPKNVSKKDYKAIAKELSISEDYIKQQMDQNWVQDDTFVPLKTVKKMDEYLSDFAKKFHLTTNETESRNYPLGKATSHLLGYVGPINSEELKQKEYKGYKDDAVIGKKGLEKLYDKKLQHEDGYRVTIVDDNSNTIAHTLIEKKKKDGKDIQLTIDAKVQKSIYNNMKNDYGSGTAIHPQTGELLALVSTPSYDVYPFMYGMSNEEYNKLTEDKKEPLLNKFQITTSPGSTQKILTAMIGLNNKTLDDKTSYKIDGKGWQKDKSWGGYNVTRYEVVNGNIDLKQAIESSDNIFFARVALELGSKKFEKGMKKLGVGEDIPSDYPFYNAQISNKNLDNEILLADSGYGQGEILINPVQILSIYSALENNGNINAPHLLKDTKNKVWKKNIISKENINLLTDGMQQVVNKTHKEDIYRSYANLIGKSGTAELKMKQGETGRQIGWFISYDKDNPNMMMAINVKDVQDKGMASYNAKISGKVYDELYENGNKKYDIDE

Staphylococcus sp. = assay: Antibacterial activity against methicillin-resistant coagulase negative Staphylococci (MRCNS); assay type: functional
Staphylococcus aureus = assay: Antibacterial activity against methicillin-resistant Staphylococcus aureus (MRSA); assay type: functional

Structure (SMILES)	IC50 (MecA) [nM]	MIC50 (Staphylococcus sp.) [µg/mL]	MIC90 (Staphylococcus sp.) [µg/mL]	MIC50 (Staphylococcus aureus) [µg/mL]	MIC90 (Staphylococcus aureus) [µg/mL]
C[C@@H](O)[C@H]1C(=O)N2C(C(=O)O)=C(c3ccc4c(c3)-c3ccc(C[N+]56CC[N+](CC(=O)Nc7ccc(C#N)cc7)(CC5)CC6)cc3C4=O)[C@H](C)[C@H]12.[Cl-].[Cl-]	1410	1	4	1	2
C[C@@H](O)[C@H]1C(=O)N2C(C(=O)O)=C(c3ccc4c(c3)-c3ccc(C[N+]56CC[N+](CC(=O)Nc7ccc(O)cc7)(CC5)CC6)cc3C4=O)[C@H](C)[C@H]12.[Cl-].[Cl-]	652	1	4	0.5	1
CC(=O)C[N+]12CC[N+](Cc3ccc4c(c3)C(=O)c3ccc(C5=C(C(=O)O)N6C(=O)[C@H]([C@@H](C)O)[C@H]6C5)cc3-4)(CC1)CC2.[Cl-].[Cl-]		4	4	2	8
C[C@@H](O)[C@H]1C(=O)N2C(C(=O)O)=C(c3ccc4c(c3)-c3ccc(C[N+]56CC[N+](CC#N)(CC5)CC6)cc3C4=O)C[C@H]12.[Cl-].[Cl-]	474	2	4	2	4
C[C@@H](O)[C@H]1C(=O)N2C(C(=O)O)=C(c3ccc4c(c3)-c3ccc(C[N+]56CC[N+](CC(=O)NCc7ccccc7)(CC5)CC6)cc3C4=O)[C@H](C)[C@H]12.[Cl-].[Cl-]	1320	1	4	1	2
CC[N+]12CC[N+](Cc3ccc4c(c3)C(=O)c3ccc(C5=C(C(=O)O)N6C(=O)[C@H]([C@@H](C)O)[C@H]6C5)cc3-4)(CC1)CC2.[Cl-].[Cl-]	416	2	4	2	4
C[C@@H](O)[C@H]1C(=O)N2C(C(=O)O)=C(c3ccc4c(c3)-c3ccc(C[N+]56CC[N+](CC(=O)Nc7cccnc7)(CC5)CC6)cc3C4=O)[C@H](C)[C@H]12.[Cl-].[Cl-]	611	2	4	1	2
C[C@@H](O)[C@H]1C(=O)N2C(C(=O)O)=C(c3ccc4c(c3)-c3ccc(C[N+]56CC[N+](CCCO)(CC5)CC6)cc3C4=O)[C@H](C)[C@H]12.[Cl-].[Cl-]	729	4	8	2	4
C[C@@H](O)[C@H]1C(=O)N2C(C(=O)O)=C(c3ccc4c(c3)-c3ccc(C[N+]56CC[N+](CC(=O)c7ccccc7)(CC5)CC6)cc3C4=O)[C@H](C)[C@H]12.[Cl-].[Cl-]	880	2	4	1	2
COC(=O)C[N+]12CC[N+](Cc3ccc4c(c3)C(=O)c3ccc(C5=C(C(=O)O)N6C(=O)[C@H]([C@@H](C)O)[C@H]6C5)cc3-4)(CC1)CC2.[Cl-].[Cl-]		16	16	8	16
C[C@@H](O)[C@H]1C(=O)N2C(C(=O)O)=C(c3ccc4c(c3)-c3ccc(C[N+]56CC[N+](CC(=O)c7ccccc7)(CC5)CC6)cc3C4=O)C[C@H]12.[Cl-].[Cl-]		2	4	2	4
C[C@@H](O)[C@H]1C(=O)N2C(C(=O)O)=C(c3ccc4c(c3)-c3ccc(C[N+]56CC[N+](CC(=O)N(C)C)(CC5)CC6)cc3C4=O)C[C@H]12.[Cl-].[Cl-]		4	4	4	4
CNC(=O)C[N+]12CC[N+](Cc3ccc4c(c3)C(=O)c3ccc(C5=C(C(=O)O)N6C(=O)[C@H]([C@@H](C)O)[C@H]6C5)cc3-4)(CC1)CC2.[Cl-].[Cl-]		2	4	2	8
